Assays:
[1] = test system: P. aeruginosa MB9798 (efflux+, IMP-1 plasmid); conditions: for MB9798 MITC95 P. aeruginosa uM Efflux WT: efflux + (MB9798) strain, imipenem at 2 μg/mL, in the presence of a class A, C, D serine β-lactamase inhibitor closely related to relebactam; for Efflux ratio: fold difference between efflux+ (MB9798) and efflux− (MB9799) strains
Procedure, shortened: (§1)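 Isogenic P. aeruginosa PAO1 strains (efflux+ and multiple-efflux-pump-disrupted) carrying plasmid IMP-1, with inducible AmpC, tested by broth microdilution. Imipenem and/or ceftazidime fixed, usually at CLSI breakpoint, plus fixed class A/C β-lactamase inhibitor; titrated MBL inhibitor concentration restoring susceptibility recorded and compared between strains as efflux fold difference.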

[2] = target: VIM-2 (Escherichia coli, UniProt Q5U7L7); test: biochemical; conditions: CCF2-FA fluorescence assay; read-out: VIM2 IC50
[3] = test system: P. aeruginosa MB9799 (efflux-, IMP-1 plasmid); type: cell-based, Pseudomonas aeruginosa; conditions: efflux − (MB9799) strain; imipenem at 2 μg/mL; in the presence of a class A, C, D serine β-lactamase inhibitor closely related to relebactam
Procedure, shortened: as §1

[4] = target: IMP-1 (Serratia marcescens, UniProt P52699); test: biochemical; conditions: CCF2-FA fluorescence assay, 2 hours at 25° C.; read-out: IMP1 IC50
IMP-1, sequence (P52699 whole entry, looked up, species assumed): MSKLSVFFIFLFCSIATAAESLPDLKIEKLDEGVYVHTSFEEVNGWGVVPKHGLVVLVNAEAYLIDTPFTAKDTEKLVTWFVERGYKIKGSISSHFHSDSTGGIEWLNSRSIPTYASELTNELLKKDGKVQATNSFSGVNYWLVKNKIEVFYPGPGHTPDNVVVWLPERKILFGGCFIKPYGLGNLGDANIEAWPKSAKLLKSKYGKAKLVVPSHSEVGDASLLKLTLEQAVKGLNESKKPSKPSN
Procedure, shortened: (§2)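 Metallo-β-lactamase activity read by fluorescence against CCF2-FA (1.25 μM final) in 100 mM KH2PO4 pH 7 with 0.005% Tween-20 and 10 μM ZnSO4; enzyme final at 1 pM NDM-1, 2 pM IMP-1 or 30 pM VIM-1. Inhibitor at 20 to 0.00063 μM, 2 h at 25° C; IC50 by 4-parameter fit.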

[5] = target: VIM-1 (Pseudomonas aeruginosa (strain ATCC 15692 / DSM 22644 / CIP 104116 / JCM 14847 / LMG 12228 / 1C / PRS 101 / PAO1), UniProt A0A0F7KYQ8); test: biochemical; conditions: CCF2-FA fluorescence assay, 2 hours at 25° C.; read-out: VIM1 IC50
Procedure, shortened: as §2

[6] = target: NDM-1 (Klebsiella pneumoniae, UniProt C7C422); test: biochemical; type: biochemical; conditions: CCF2-FA fluorescence assay, 2 hours at 25° C.
NDM-1, sequence (C7C422 whole entry, looked up, species assumed): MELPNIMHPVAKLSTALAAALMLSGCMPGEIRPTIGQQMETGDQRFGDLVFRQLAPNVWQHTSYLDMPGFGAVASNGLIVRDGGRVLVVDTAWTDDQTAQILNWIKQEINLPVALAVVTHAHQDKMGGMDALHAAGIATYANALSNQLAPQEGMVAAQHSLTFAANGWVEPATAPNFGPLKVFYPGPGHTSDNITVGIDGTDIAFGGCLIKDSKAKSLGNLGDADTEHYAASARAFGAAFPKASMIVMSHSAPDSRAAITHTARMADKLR
Procedure, shortened: as §2

[7] = test system: Serratia marcescens expressing IMP-1 (CL5741); type: cell-based; conditions: with imipenem 1 μg/ml; 95% inhibition of bacterial growth
Procedure, shortened: (§3)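 Clinical MBL-producing strains were grown overnight at 35 °C on blood agar, suspended in saline, diluted 1:100 into 1.1× CAMHB and exposed to test compound with imipenem at 1 μg/ml. After 22–24 h at 35 °C, absorbance gave MITC95: lowest compound concentration inhibiting 95% of growth.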

[8] = test system: Escherichia coli expressing NDM-1 (CLB30016); type: cell-based; conditions: with imipenem 1 μg/ml; 95% inhibition of bacterial growth
Procedure, shortened: as §3

[9] = test system: Klebsiella pneumoniae expressing VIM-1 (IHMA599644); type: cell-based; conditions: with imipenem 1 μg/ml; 95% inhibition of bacterial growth
Procedure, shortened: as §3

SMILES	MB9798 MITC95 P. aeruginosa uM Efflux WT [1]	Efflux ratio [1]	IC50 [2]	MB9799 MITC95 P. aeruginosa uM Efflux Mutant [3]	IC50 [4]	IC50 [5]	IC50 [6]	CL5741 S. marcescens MITC95 IMP [7]	CLB30016 E. coli MITC95 NDM [8]	IHMA599644 K. pneumoniae MITC95 VIM [9]
NS(=O)(=O)c1c(S(=O)(=O)N[C@@H]2CCNC2)ccc(N2CCC(C(F)F)CC2)c1-c1nnn[nH]1 [Example 90, 4-[4-(difluoromethyl)piperidin-1-yl]-N1-[(3R)-pyrrolidin-3-yl]-3-(1H-tetrazol-5-yl)benzene-1,2-disulfonamide]	6.25 µM	4.00	1.02 nM	1.56 µM	0.77 nM	0.34 nM	0.43 nM	3.13 µM	3.13 µM	3.13 µM
NS(=O)(=O)c1c(S(=O)(=O)N[C@@H]2CCNC2)ccc(N2CCC(F)(CO)CC2)c1-c1nnn[nH]1 [Example 91, 4-[4-fluoro-4-(hydroxymethyl)piperidin-1-yl]-N1-[(3R)-pyrrolidin-3-yl]-3-(1H-tetrazol-5-yl)benzene-1,2-disulfonamide]	3.13 µM	2.00	1.65 nM	1.56 µM	1.26 nM	0.47 nM	0.42 nM	3.13 µM	3.13 µM	6.25 µM
NC(=O)C1CCN(c2ccc(S(=O)(=O)N[C@@H]3CCNC3)c(S(N)(=O)=O)c2-c2nnn[nH]2)C1 (stereo partly drawn) [Example 92, 1-{4-[(3R)-pyrrolidin-3-ylsulfamoyl]-3-sulfamoyl-2-(1H-tetrazol-5-yl)phenyl}pyrrolidine-3-carboxamide]	1.56 µM	1.00	0.74 nM	1.56 µM	0.31 nM	0.3 nM	0.38 nM	1.56 µM	0.78 µM	3.13 µM
NS(=O)(=O)c1c(S(=O)(=O)N[C@@H]2CCNC2)ccc(N2CCN(CCCO)CC2)c1-c1nnn[nH]1 [Example 93, 4-[4-(3-hydroxypropyl)piperazin-1-yl]-N1-[(3R)-pyrrolidin-3-yl]-3-(1H-tetrazol-5-yl)benzene-1,2-disulfonamide]	3.13 µM	2.00	6.73 nM	1.56 µM	2.52 nM	3.62 nM	1.71 nM	0.20 µM	0.39 µM	1.56 µM
NC(=O)C1CCN(c2ccc(S(=O)(=O)N[C@@H]3CCNC3)c(S(N)(=O)=O)c2-c2nnn[nH]2)CC1 [Example 94, 1-{4-[(3R)-pyrrolidin-3-ylsulfamoyl]-3-sulfamoyl-2-(1H-tetrazol-5-yl)phenyl}piperidine-4-carboxamide]	3.13 µM	1.00	1.18 nM	3.13 µM	0.5 nM	0.27 nM	0.18 nM	6.25 µM	3.13 µM	6.25 µM
CC(=O)N[C@@H]1CCN(c2ccc(S(=O)(=O)N[C@@H]3CCNC3)c(S(N)(=O)=O)c2-c2nnn[nH]2)C1 [Example 95, N-[(3R)-1-{4-[(3R)-pyrrolidin-3-ylsulfamoyl]-3-sulfamoyl-2-(1H-tetrazol-5-yl)phenyl}pyrrolidin-3-yl]acetamide]	6.25 µM	2.00	6.09 nM	3.13 µM	1.55 nM	1.42 nM	4.31 nM	6.25 µM	6.25 µM	12.50 µM
NS(=O)(=O)c1c(S(=O)(=O)N[C@@H]2CCNC2)ccc(N2CC[C@H](CO)C2)c1-c1nnn[nH]1 [Example 96, 4-[(3S)-3-(hydroxymethyl)pyrrolidin-1-yl]-N1-[(3R)-pyrrolidin-3-yl]-3-(1H-tetrazol-5-yl)benzene-1,2-disulfonamide]	3.13 µM	2.00	1.02 nM	1.56 µM	0.98 nM	0.53 nM	1.21 nM	1.56 µM	3.13 µM	6.25 µM
NS(=O)(=O)c1c(S(=O)(=O)N[C@@H]2CCNC2)ccc(N2CC[C@H](O)C2)c1-c1nnn[nH]1 [Example 97, 4-[(3S)-3-hydroxypyrrolidin-1-yl]-N1-[(3R)-pyrrolidin-3-yl]-3-(1H-tetrazol-5-yl)benzene-1,2-disulfonamide]	6.25 µM	2.00	4.43 nM	3.13 µM	11.6 nM	2.49 nM	6.21 nM	6.25 µM	3.13 µM	12.50 µM
NS(=O)(=O)c1c(S(=O)(=O)N[C@@H]2CCNC2)ccc(N2CCC(CCO)CC2)c1-c1nnn[nH]1 [Example 98, 4-[4-(2-hydroxyethyl)piperidin-1-yl]-N1-[(3R)-pyrrolidin-3-yl]-3-(1H-tetrazol-5-yl)benzene-1,2-disulfonamide]	3.13 µM	1.00	0.59 nM	3.13 µM	0.13 nM	0.15 nM	0.08 nM	6.25 µM	12.50 µM	12.50 µM
NS(=O)(=O)c1c(S(=O)(=O)N[C@@H]2CCNC2)ccc(N2CC[C@@H](O)C2)c1-c1nnn[nH]1 [Example 99, 4-[(3R)-3-hydroxypyrrolidin-1-yl]-N1-[(3R)-pyrrolidin-3-yl]-3-(1H-tetrazol-5-yl)benzene-1,2-disulfonamide]	3.13 µM	1.00	3.22 nM	3.13 µM	1.33 nM	2.66 nM	0.92 nM	3.13 µM	1.56 µM	6.25 µM
CN(C)CC1(O)CCN(c2ccc(S(=O)(=O)N[C@@H]3CCNC3)c(S(N)(=O)=O)c2-c2nnn[nH]2)CC1 [Example 100, 4-{4-[(dimethylamino)methyl]-4-hydroxypiperidin-1-yl}-N1-[(3R)-pyrrolidin-3-yl]-3-(1H-tetrazol-5-yl)benzene-1,2-disulfonamide]	12.50 µM	2.00	162 nM	6.25 µM	37 nM	12.4 nM	17.5 nM	6.25 µM	12.50 µM	12.50 µM
NS(=O)(=O)c1c(S(=O)(=O)N[C@@H]2CCNC2)ccc(N2CCC(CO)CC2)c1-c1nnn[nH]1 [Example 101, 4-[4-(hydroxymethyl)piperidin-1-yl]-N1-[(3R)-pyrrolidin-3-yl]-3-(1H-tetrazol-5-yl)benzene-1,2-disulfonamide]	1.56 µM	2.00	0.39 nM	0.78 µM	0.16 nM	0.09 nM	0.08 nM	1.56 µM	0.78 µM	3.13 µM
